Read-outs that look alike come from different tables or passages of the source. Square brackets hold non-standard residues; d marks the D form. Peptide text beside a SMILES is read from it. d(aIle) = CC[C@H](C)[C@@H](N)C(=O)O; Nva = CCC[C@H](N)C(=O)O; Sar = CNCC(=O)O
Experiments:
NHL = settings: cited from earlier work
first-relapse NHL = settings: with lomustine vs lomustine and placebo; cited from earlier work
tumor growth = settings: mouse, in vivo; cited from earlier work
[1] = system: spontaneous canine tumors; settings: dog, in vivo; cited from earlier work
[2] = system: soft tissue sarcoma (STS) or malignant histiocytosis (MH); settings: dog, in vivo
Experimental: Depletion of MSC is accomplished by i.v. administration of LC, which is prepared as described for treatment of dogs with malignant histiocytosis (34). The LC is administered once every 2 weeks by slow i.v. infusion over 60 minutes, at a dose of 0.5 ml/kg.

canine osteosarcoma = settings: non-metastatic dogs, cisplatin followed by L-MTP-PE or placebo; cited from earlier work
Canine TCC = settings: dog, in vivo; cited from earlier work
cultured cells = settings: cited from earlier work
[3] = system: canine soft tissue sarcoma; settings: bleomycin and electric pulses; cited from earlier work
soft tissue sarcoma [4] = settings: intralesional, biphasic electric pulses; cited from earlier work
soft tissue sarcoma [5] = settings: cited from earlier work
high-grade osteosarcoma = settings: added to doxorubicin, cisplatin and high-dose methotrexate; cited from earlier work
canine MGT = settings: dog, in vivo; cited from earlier work
MSC = settings: in vivo; cited from earlier work
[6] = system: circulating neutrophil counts; settings: immunosuppressive doses; cited from earlier work

Cc1ncc(CO)c(CO)c1O [pyridoxine]
relative risk of developing PPES, placebo group versus pyridoxine (NHL; daily Doxil with oral pyridoxine or placebo): 4.2 times
PPES symptoms (NHL; dog, in vivo): delayed and lessened the symptoms
remission rates between treatment groups (NHL; dog, in vivo): No difference

CCC[C@H](NC(=O)[C@@H](NC(=O)[C@H](NC(=O)[C@@H](NC(=O)CNC(=O)CN(C)C(C)=O)C(C)C)[C@@H](C)CC)[C@@H](C)O)C(=O)N[C@H](C(=O)N[C@@H](CCCNC(=N)N)C(=O)N1CCC[C@H]1C(=O)NCC)[C@@H](C)CC [ABT-526] (Ac-[Sar]GV[d(aIle)]T[Nva]IRP-NHEt)
duration of response (first-relapse NHL): modestly enhanced
number of cases responding to chemotherapy (first-relapse NHL): did not increase
tumor growth (tumor growth): slow tumor growth
relative activity [1]: more active than ABT-510

liposomal clodronate [LC]
tolerability [2]: well-tolerated

N.N.[Cl][Pt][Cl] [cisplatin]
median survival time (canine osteosarcoma): 9.8 months

CN1C(C(=O)Nc2ccccn2)=C(O)c2ccccc2S1(=O)=O [piroxicam]
objective response rate (Canine TCC): 18%

bleomycin
internalized fraction (cultured cells): < 0.1%
median time to recurrence [3]: 730 days
response rate [3]: 95%
long term remissions (soft tissue sarcoma [4]): 40%
overall response rate (soft tissue sarcoma [4]): 80%
average time of recurrence (soft tissue sarcoma [5]; intraoperative bleomycin with electrotherapy): 12 months
average time of recurrence (soft tissue sarcoma [5]; postoperative bleomycin with electrotherapy): 19 months

O=P1(NCCCl)OCCCN1CCCl (stereo not drawn) [ifosfamide]
drug free survival (DFS) (high-grade osteosarcoma): did not significantly improve
overall survival (OS) (high-grade osteosarcoma): did not significantly improve

COc1cccc2c1C(=O)c1c(O)c3c(c(O)c1C2=O)C[C@@](O)(C(=O)CO)C[C@@H]3O[C@H]1C[C@H](N)[C@H](O)[C@H](C)O1 [doxorubicin]
anti-tumor activity (canine MGT): a few partial responses

CC1=C(/C=C/C(C)=C/C=C/C(C)=C/C(=O)O)C(C)(C)CCC1 [ATRA, all-trans retinoic acid]
spontaneous anti-tumor immunity (MSC): improved
vaccine responses (MSC): significantly enhanced

CC/C(=C(\c1ccccc1)c1ccc(OCCN(C)C)cc1)c1ccccc1 [tamoxifen]
anti-tumor activity (canine MGT): does not have demonstrable anti-tumor activity

C[C@]12C=CC(=O)C=C1CC[C@@H]1[C@@H]2C(=O)C[C@@]2(C)[C@H]1CC[C@]2(O)C(=O)CO [prednisone]
time to rebound in circulating neutrophil counts [6]: 48 to 72 h

Reference: patent US20160349242A1, “PLATFORM TECHNOLOGIES FOR SPONTANEOUSLY OCCURRING DISEASES” (Oatmeal Biotechnologies Group, LLC, priority 2009, published 2016)
